Laboratory results from US20220170119A1, “Signaling Pathway of Cannabidiol (CBD) for Prevention and Treatment of COVID-19” (Hemix Biotech Limited, priority 2020, published 2022).

Assays:
wild type MEFs = experiment: Proliferation rate (population doubling level) of wild type MEFs; assay type: cell-based, mouse
Method: (§1) In the step of determining cells' proliferation rate and the optimal concentration of molecules, the primary mouse embryonic fibroblasts (MEFs) at passage 3 were counted by using LUNA-II Automated Cell Counter. 1.0×10^5 cells were seeded to a well of 6-well plate. The cells were treated with DMSO as control, 10 μM or 50 μM CBD.
(§2) Referring to FIG. 2, after 4-day and 8-day treatment, the cells were counted again using automated cell counter. The population doubling level (PDL), which reflects the proliferation rate of cells, was calculated by the formula: n=3.32 (log UCY−log I)+X, where n=the PDL number, UCY=the cell yield at that time point, I=the initial cell number, and X=the doubling level of the cells used to initiate the subculture being quantitated.

Lamin A 609 MEFs = experiment: Proliferation rate (population doubling level) of Lamin A 609 MEFs; assay type: cell-based, mouse
Method: as §1, §2

TRIB3 [1] = experiment: RNA sequencing of TRIB3 expression in wild type MEFs; assay type: cell-based, mouse; settings: wild type MEFs receiving CBD treatment
Method: (§3) RNA sequencing is carried out wherein the RNA samples were extracted using TRIzol and kept in 75% ethanol in diethylpyrocarbonate (DEPC) water at −20° C. For each condition, two biological replicates were prepared for RNA sequencing. The RNA samples were dissolved in DEPC water and carried out quality control analysis. The RNA quantitation was done using Nanodrop™ and Agilent® 2100 Bioanalyzer. The RNA integrity was measured using Agilent® 2100 Bioanalyzer. The RNA purity was measured using agarose gel electrophoresis and Agilent® 2100 Bioanalyzer.
(§4) The samples that had concentration over 50 ng/μl for volume over 20 μl, RIN value over 6.3, and OD260/280 value over 2.0 were considered to pass the quality control analysis and were used for RNA sequencing. Illumina sequencing system was used for paired-end reads of read lengths PE150. 6 GB of raw data was acquired from each sample. […]
(§5) In the step of RNA sequencing, the RNA samples were extracted using TRIzol and kept in 75% ethanol in diethylpyrocarbonate (DEPC) water at −20° C. […] The RNA quantitation was done using Nanodrop™ and Agilent® 2100 Bioanalyzer. The RNA integrity was measured using Agilent® 2100 Bioanalyzer. The RNA purity was measured using agarose gel electrophoresis and Agilent® 2100 Bioanalyzer. […]

TRIB3 [2] = experiment: RNA sequencing of TRIB3 expression in Lamin A 609 MEFs; assay type: cell-based, mouse; settings: premature aging Lamin A 609 MEFs, CBD treatment
Method: as §3, §4, §5

nCoV virus = experiment: nCoV infection of Huh7 cells, qPCR of viral gene copy number; assay type: cell-based
Method: (§6) To examine CBD inhibitory effects on nCoV infection, Huh7 cells were chosen. 2.0×10^5 cells/well of Huh7 cells were seeded to 24-well plate. The Huh7 cells were treated with DMSO as control, 2.5 μM, 5 μM or 10 μM CBD for 1 hour. The Huh7 cells were then infected with 0.01 MOI of nCoV virus for 1 hour. The inoculum was discarded and the plate was washed with 1 mL PBS twice. The Huh7 cells were then cultured in DMEM/F-12 and treated with DMSO as control, 2.5 μM, 5 μM or 10 μM CBD. After 2, 24 and 48 hours after infection, the supernatant and cell lysate were collected for qPCR analysis for determination of viral gene copy number.
as §6, with “In the step of examining CBD” for “To examine CBD”, “nCoV infection in” for “nCoV infection,”, “Huh7 cells,” for “Huh7 cells were chosen.”

SARS-Cov-2 pseudovirus = experiment: Luciferase assay of SARS-Cov-2 pseudovirus infection of Caco2 cells; assay type: cell-based
Caco-2 cells = experiment: Proliferation rate (PDL) of Caco-2 cells; assay type: cell-based, human; settings: 5 μM CBD
Method: Referring to FIG. 8, which shown the proliferation rate of Caco-2 cells with CBD treatment. We have compared the population doubling level (PDL) of Caco-2 cells with CBD treatment at four different concentration, namely, 0 μM CBD, 5 μM CBD, 10 μM CBD, and 20 μM CBD. […] Therefore, the COVID-19 virus suppression effect observed in FIG. 7 was not caused by toxicity of CBD.

Caco2 cells = experiment: KI67 expression in Caco2 cells; assay type: cell-based, human; settings: 5 μM CBD
Method: Referring to FIG. 9, to confirm that the COVID-19 virus suppression effect observed in FIG. 7 was not caused by toxicity of CBD, we have analyzed the expression of KI67 with CBD treatment at the concentration of 5 μM CBD. […] It is confirmed that the COVID-19 virus suppression effect observed in FIG. 7 was not caused by toxicity of CBD.

TRIB3 [3] = experiment: TRIB3 expression level in Caco-2 cells (FIG. 10); assay type: cell-based, human; settings: Caco2 cells, CBD treatment (FIG. 10)
Source text: (§7) Referring to FIG. 10, we have further analyzed the mechanism of CBD treatment on Caco-2 cells by comparing the expression level of TRIB3 and AFT5 in Caco-2 cells by the CBD treatment. […] Similarly, ATF5 was also identified by the RNA sequencing results and it is closely associated with TRIB3.

ATF5 [4] = experiment: ATF5 expression level in Caco-2 cells (FIG. 10); assay type: cell-based, human; settings: Caco2 cells, CBD treatment (FIG. 10)
Source text: as §7

TRIB3 [5] = experiment: TRIB3 expression in Caco2 cells by immunofluorescence staining (FIG. 11); assay type: cell-based, human; settings: 5 μM CBD (FIG. 11)
Source text: (§8) Referring to FIG. 11, we have further analyzed the mechanism of CBD treatment on Caco-2 cells by comparing the expression level of TRIB3 and AFT5 in Caco2 cells by the CBD treatment. Compared to FIG. 10, we have measured the expression of TRIB3 and AFT5 by immunofluorescence staining.

ATF5 [6] = experiment: ATF5 expression in Caco2 cells by immunofluorescence staining (FIG. 11); assay type: cell-based, human; settings: 5 μM CBD (FIG. 11)
Source text: as §8

SARS-CoV-2 = experiment: qPCR of viral gene copy in SARS-CoV-2 infected golden hamster; assay type: in vivo
Source text: Referring to FIG. 12, we tested the CBD's anti-COVID-19 effects in nasal turbinate of golden hamster by qPCR analysis of viral gene copy in nasal turbinate of SARS-CoV-2 infected golden hamster upon CBD treatment.

lung fibrosis = experiment: Masson Trichrome staining of Covid-19 infected golden hamster lung; assay type: in vivo; settings: lung of Covid-19 infected golden hamster, compared to control
Source text: Referring to FIG. 14, we have further tested CBD's anti-COVID-19 effects by analysis of Masson Trichrome staining of Covid-19 infected golden hamster lung treated with control or CBD.

LMNA^G609G/G609G mice = experiment: CBD treatment in LMNA G609G/G609G mice (health span); assay type: in vivo, mouse; settings: IP twice a week
Method: CBD was dissolved in 5% DMSO and 5% polyethylene glycol (PEG) in sterile saline and stored at −80° C. for up to 1 month. 2 months old LMNA^G609G/G609G mice were selected used. The mice then received an intraperitoneal injection (IP) twice a week until they reached the humane point.
In step of CBD treating in mice, 2 months old LMNA^G609G/G609G mice were selected and used. They received an intraperitoneal injection (IP) twice a week until they reached the humane point. Different dosages were used for the injection; 50 mg/kg of CBD was identified as the optimal dosage with the greatest extend in health span of the treated mice. CBD was dissolved in 5% DMSO and 5% polyethylene glycol (PEG) in sterile saline and stored at −80° C. for up to 1 month.

Covid-19 = settings: human, in vivo; cited from earlier work

**Q.** For `C=C(C)[C@@H]1CCC(C)=C[C@H]1c1c(O)cc(CCCCC)cc1O` [CBD, Cannabidiol], which “population doubling level (PDL)” value (wild type MEFs; high dosage 50 μM CBD) is on record?
**A.** Its value is “significantly decreased”.

**Q.** What about the “population doubling level (PDL)” value (wild type MEFs; optimal dosage 10 μM CBD) of the same molecule?
**A.** Its value is “significantly increased”.

**Q.** What about the “population doubling level (PDL)” value (Lamin A 609 MEFs; high dosage 50 μM CBD) of the same molecule?
**A.** The value was “significantly decreased”.

**Q.** And the “population doubling level (PDL)” value (Lamin A 609 MEFs; optimal dosage 10 μM CBD)?
**A.** Its value is “significantly increased”.

**Q.** What about the “TRIB3 expression (fpkm, RNA sequencing)” value (TRIB3 [1]) of the same molecule?
**A.** Its value is “upregulated”.

**Q.** What about the “expression levels of TRIB3 (RNA sequencing)” value (TRIB3 [2]) of the same molecule?
**A.** Its value is “increase”.

**Q.** And the “nCoV virus infection (viral gene copy number in cell lysate and supernatant)” value (nCoV virus; Huh7 cells, 2.5, 5 or 10 μM CBD, 0.01 MOI, 2, 24 and 48 hours after infection)?
**A.** The value was “inhibited”.

**Q.** And the “optimal dosage of CBD” value (nCoV virus; Huh7 cells, inhibition of nCoV infection)?
**A.** Its value is 5 µM.

**Q.** What about the “reduction of SARS-Cov-2 pseudovirus infection” value (SARS-Cov-2 pseudovirus) of the same molecule?
**A.** The value was 72%.

**Q.** And the “proliferation of Caco-2 cells shown by population doubling level (PDL)” value (Caco-2 cells)?
**A.** The value was “didn't affect proliferation”.

**Q.** And the “proliferation of Caco2 cells shown by KI67” value (Caco2 cells)?
**A.** Its value is “didn't affect proliferation”.

**Q.** And the “expression level of TRIB3” value (TRIB3 [3])?
**A.** Its value is “significantly upregulate”.

**Q.** What about the “expression level of ATF5” value (ATF5 [4]) of the same molecule?
**A.** Its value is “significantly upregulate”.

**Q.** What about the “TRIB3 level of expression, immunofluorescence staining” value (TRIB3 [5]) of the same molecule?
**A.** The value was “increased”.

**Q.** What about the “ATF5 level of expression, immunofluorescence staining” value (ATF5 [6]) of the same molecule?
**A.** Its value is “increased”.

**Q.** And the “SARS-Cov-2 infection (viral gene copy) in lung” value (SARS-CoV-2; lung)?
**A.** The value was “suppress”.

**Q.** What about the “SARS-CoV-2 infection (viral gene copy) in nasal turbinate” value (SARS-CoV-2; nasal turbinate) of the same molecule?
**A.** The value was “reduced”.

**Q.** And the “area and intensity of blue stain (fibrosis), Masson Trichrome staining” value (lung fibrosis)?
**A.** Its value is “significantly lowered”.

**Q.** What about the “optimal dosage with the greatest extend in health span” value (LMNA^G609G/G609G mice) of the same molecule?
**A.** Its value is 50 mg/kg.

**Q.** For Ivermectin, which “efficacy in treating COVID-19” value (Covid-19) is on record?
**A.** Its value is “not conclusive”.

**Q.** Which “efficacy in treating COVID-19” value (Covid-19) does the source give for `NC(=O)c1nc(F)c[nH]c1=O` [Favipiravir] here?
**A.** The value was “not conclusive”.

**Q.** Which “efficacy in treating COVID-19” value (Covid-19) does the source give for Lopinavir-ritonavir here?
**A.** The value was “not conclusive”.
